# ChEMBL document CHEMBL5291721, “A preclinical secondary pharmacology resource illuminates target-adverse drug reaction associations of marketed drugs” (Nat Commun, 2023)
# Columns and labels:
# [1] = target: T1, Alpha-1A adrenergic receptor (Homo sapiens, UniProt P35348)
# T1 sequence (P35348 whole entry): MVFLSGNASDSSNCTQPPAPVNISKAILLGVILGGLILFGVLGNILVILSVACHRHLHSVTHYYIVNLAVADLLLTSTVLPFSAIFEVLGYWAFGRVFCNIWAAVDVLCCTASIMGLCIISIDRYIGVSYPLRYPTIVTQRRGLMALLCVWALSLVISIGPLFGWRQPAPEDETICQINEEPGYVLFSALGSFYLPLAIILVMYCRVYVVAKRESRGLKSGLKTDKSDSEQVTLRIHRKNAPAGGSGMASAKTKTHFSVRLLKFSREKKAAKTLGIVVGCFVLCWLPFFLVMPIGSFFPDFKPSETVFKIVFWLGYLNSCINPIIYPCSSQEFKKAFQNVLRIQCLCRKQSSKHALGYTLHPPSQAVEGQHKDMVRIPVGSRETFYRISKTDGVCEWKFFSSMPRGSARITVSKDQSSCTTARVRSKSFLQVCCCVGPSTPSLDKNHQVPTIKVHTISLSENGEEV
# [2] = target: D(1A) dopamine receptor (Homo sapiens, UniProt P21728)
# Chain of D(1A) dopamine receptor (P21728 whole entry): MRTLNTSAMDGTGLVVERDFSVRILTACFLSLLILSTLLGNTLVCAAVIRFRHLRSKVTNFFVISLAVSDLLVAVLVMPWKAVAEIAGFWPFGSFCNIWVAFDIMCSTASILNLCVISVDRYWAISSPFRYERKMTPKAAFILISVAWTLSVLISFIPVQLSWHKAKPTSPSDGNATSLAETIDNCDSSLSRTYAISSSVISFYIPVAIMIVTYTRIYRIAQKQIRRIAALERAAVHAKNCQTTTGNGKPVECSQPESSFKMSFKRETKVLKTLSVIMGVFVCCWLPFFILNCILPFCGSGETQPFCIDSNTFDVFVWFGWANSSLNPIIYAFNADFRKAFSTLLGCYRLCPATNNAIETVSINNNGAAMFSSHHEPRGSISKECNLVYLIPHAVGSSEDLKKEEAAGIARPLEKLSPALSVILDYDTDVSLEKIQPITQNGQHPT
# [3] = target: T2, Cannabinoid receptor 1 (Homo sapiens, UniProt P21554)
# T2 sequence (P21554 whole entry): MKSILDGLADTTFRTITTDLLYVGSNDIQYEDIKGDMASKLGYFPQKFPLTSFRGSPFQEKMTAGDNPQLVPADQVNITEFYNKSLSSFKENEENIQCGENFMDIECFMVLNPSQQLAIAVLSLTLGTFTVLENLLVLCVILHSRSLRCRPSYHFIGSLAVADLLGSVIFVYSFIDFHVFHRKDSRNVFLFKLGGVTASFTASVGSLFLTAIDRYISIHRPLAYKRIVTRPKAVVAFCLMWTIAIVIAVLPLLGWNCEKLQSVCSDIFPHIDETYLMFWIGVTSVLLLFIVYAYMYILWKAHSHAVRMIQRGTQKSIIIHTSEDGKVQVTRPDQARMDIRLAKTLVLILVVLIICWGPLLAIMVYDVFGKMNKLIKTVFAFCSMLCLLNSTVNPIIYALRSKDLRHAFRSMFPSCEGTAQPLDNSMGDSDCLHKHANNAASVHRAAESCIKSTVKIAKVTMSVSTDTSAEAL
# [4] = target: T3, Corticotropin-releasing factor receptor 2 (Homo sapiens, UniProt Q13324)
# T3 sequence (Q13324 whole entry): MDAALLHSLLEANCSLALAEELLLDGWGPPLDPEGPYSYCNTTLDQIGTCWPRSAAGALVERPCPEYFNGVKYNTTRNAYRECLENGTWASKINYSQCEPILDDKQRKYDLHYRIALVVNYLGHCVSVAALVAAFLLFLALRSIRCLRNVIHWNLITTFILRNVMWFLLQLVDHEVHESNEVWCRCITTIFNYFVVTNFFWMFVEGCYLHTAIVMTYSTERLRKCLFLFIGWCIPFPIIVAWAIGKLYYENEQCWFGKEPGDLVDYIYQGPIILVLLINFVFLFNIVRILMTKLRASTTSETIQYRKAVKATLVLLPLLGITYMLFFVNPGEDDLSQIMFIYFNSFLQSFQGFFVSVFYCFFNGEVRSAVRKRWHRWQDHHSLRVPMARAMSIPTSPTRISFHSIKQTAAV
# [5] = target: T4, D(4) dopamine receptor (Homo sapiens, UniProt P21917)
# T4 sequence (P21917 whole entry): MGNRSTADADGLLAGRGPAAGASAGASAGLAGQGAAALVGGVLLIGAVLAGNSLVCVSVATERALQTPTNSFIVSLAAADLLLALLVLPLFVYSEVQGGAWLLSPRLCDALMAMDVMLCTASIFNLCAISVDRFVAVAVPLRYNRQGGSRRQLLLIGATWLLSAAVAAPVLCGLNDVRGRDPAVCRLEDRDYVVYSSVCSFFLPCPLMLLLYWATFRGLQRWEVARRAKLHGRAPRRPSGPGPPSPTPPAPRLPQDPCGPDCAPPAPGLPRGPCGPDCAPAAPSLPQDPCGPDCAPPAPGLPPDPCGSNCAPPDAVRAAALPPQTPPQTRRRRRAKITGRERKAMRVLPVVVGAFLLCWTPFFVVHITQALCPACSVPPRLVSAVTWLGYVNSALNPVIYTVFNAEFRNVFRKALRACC
# [6] = target: Glucagon receptor (Homo sapiens, UniProt P47871)
# Chain of Glucagon receptor (P47871 whole entry): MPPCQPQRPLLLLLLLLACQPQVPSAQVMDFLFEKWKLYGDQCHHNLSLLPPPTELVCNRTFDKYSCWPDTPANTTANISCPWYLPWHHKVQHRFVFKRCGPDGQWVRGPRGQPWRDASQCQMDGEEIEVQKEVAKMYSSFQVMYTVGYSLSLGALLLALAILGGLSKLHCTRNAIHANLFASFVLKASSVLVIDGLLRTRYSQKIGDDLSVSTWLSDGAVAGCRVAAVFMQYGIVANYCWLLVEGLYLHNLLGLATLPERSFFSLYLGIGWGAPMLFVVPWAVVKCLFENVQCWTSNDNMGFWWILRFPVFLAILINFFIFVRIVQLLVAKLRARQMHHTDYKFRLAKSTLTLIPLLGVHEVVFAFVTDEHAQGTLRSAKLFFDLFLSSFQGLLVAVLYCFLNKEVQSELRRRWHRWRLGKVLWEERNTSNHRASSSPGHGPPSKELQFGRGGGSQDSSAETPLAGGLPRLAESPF
# [7] = target: Melanocortin receptor 4 (Homo sapiens, UniProt P32245)
# Chain of Melanocortin receptor 4 (P32245 whole entry): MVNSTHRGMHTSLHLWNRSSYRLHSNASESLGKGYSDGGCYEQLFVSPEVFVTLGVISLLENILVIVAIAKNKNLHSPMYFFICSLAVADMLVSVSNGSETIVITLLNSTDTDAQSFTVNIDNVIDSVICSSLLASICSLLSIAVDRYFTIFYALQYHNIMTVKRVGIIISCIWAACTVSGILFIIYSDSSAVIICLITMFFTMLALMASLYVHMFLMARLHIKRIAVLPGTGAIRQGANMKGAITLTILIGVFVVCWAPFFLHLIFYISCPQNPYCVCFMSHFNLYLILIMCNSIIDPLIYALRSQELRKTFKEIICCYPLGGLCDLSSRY
# [8] = target: T5, Neuropeptide Y receptor type 2 (Homo sapiens, UniProt P49146)
# T5 sequence (P49146 whole entry): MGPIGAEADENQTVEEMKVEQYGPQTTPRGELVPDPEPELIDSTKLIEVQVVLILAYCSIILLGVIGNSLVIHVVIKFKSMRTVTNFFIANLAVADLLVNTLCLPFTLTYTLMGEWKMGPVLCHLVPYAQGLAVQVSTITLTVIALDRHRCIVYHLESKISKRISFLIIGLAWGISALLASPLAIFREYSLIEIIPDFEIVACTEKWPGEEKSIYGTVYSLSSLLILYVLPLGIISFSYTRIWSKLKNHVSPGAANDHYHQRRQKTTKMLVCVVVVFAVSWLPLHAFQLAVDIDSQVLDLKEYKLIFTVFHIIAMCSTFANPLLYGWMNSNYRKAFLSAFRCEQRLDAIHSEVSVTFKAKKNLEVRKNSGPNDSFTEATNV
# [9] = target: T6, Alpha-2A adrenergic receptor (Homo sapiens, UniProt P08913)
# T6 sequence (P08913 whole entry): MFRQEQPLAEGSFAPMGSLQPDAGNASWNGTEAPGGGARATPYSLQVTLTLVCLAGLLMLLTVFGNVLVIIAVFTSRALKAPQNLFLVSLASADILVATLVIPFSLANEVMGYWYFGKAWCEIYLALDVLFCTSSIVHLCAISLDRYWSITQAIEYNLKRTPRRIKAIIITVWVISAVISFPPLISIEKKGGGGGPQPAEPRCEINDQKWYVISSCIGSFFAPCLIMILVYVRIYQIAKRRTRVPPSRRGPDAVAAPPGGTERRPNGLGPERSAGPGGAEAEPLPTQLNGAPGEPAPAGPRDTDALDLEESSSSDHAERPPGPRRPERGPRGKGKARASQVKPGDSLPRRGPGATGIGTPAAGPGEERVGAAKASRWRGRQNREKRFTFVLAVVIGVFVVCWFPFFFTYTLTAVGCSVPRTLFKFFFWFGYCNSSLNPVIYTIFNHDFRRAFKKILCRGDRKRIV
# [10] = target: Histamine H3 receptor (Homo sapiens, UniProt Q9Y5N1)
# Chain of Histamine H3 receptor (Q9Y5N1 whole entry): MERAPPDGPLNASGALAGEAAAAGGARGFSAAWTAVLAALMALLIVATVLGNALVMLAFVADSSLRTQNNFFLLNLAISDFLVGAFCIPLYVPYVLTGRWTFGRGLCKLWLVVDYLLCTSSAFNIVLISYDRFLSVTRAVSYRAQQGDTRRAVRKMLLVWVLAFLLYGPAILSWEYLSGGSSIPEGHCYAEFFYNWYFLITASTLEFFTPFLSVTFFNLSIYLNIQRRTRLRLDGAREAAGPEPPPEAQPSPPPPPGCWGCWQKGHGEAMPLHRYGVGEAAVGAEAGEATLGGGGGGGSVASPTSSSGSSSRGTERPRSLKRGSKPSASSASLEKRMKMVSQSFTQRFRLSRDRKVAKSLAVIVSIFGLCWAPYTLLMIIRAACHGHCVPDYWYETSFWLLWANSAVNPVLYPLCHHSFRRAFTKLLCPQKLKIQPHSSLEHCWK
# [11] = target: T2, Cannabinoid receptor 1; format: functional, cell-based
# Also: assay procedure not described here.
Structure (SMILES),AC50 [3],AC50 [7],AC50 [10],AC50 [11],other results
CCCCCCCC(=O)N[C@H](CN1CCCC1)[C@H](O)c1ccc2c(c1)OCCO2,,,,,AC50 [1]: > 30 µM; AC50 [2]: > 30 µM
C[C@]1(COc2ccc(N3CCC(Oc4ccc(OC(F)(F)F)cc4)CC3)cc2)Cn2cc([N+](=O)[O-])nc2O1,> 10 µM,> 30 µM,> 10 µM,,AC50 [4]: > 30 µM; AC50 [5]: > 10 µM; AC50 [6]: > 30 µM; AC50 [8]: > 30 µM; AC50 [9]: > 10 µM
C[C@]12CC[C@H](O)CC1=CC[C@@H]1[C@@H]2CC[C@]2(C)C(c3cccnc3)=CC[C@@H]12 [ABIRATERONE],> 10 µM,> 30 µM,> 10 µM,,
CC(=O)OCC[N+](C)(C)C [ACETYLCHOLINE],> 10 µM,> 30 µM,> 10 µM,> 30 µM,AC50 [4]: > 30 µM; AC50 [5]: > 10 µM; AC50 [6]: > 30 µM; AC50 [8]: > 30 µM; AC50 [9]: > 10 µM
O=C(Nc1nc(-c2cc(Cl)cs2)c(N2CCN(C3CCCCC3)CC2)s1)c1cnc(N2CCC(C(=O)O)CC2)c(Cl)c1 [AVATROMBOPAG],> 10 µM,> 10 µM,> 10 µM,,AC50 [1]: > 30 µM; AC50 [2]: > 30 µM; AC50 [5]: > 10 µM; AC50 [8]: > 10 µM; AC50 [9]: > 10 µM
CN(C)C(=O)Oc1cc(OC(=O)N(C)C)cc(C(O)CNC(C)(C)C)c1 (stereo not drawn) [BAMBUTEROL],,,> 30 µM,,
C[C@H]1C[C@H]2[C@@H]3CCC4=CC(=O)C=C[C@]4(C)[C@@]3(Cl)[C@@H](O)C[C@]2(C)[C@@]1(O)C(=O)CO [BECLOMETHASONE],> 10 µM,> 30 µM,> 10 µM,,AC50 [4]: > 30 µM; AC50 [5]: > 10 µM; AC50 [6]: > 30 µM; AC50 [8]: > 30 µM; AC50 [9]: > 10 µM
CO[C@@]1(NC(=O)CSCC#N)C(=O)N2C(C(=O)O)=C(CSc3nnnn3C)CS[C@@H]21 [CEFMETAZOLE],,,,> 30 µM,AC50 [1]: > 30 µM; AC50 [2]: > 30 µM
CO/N=C(\C(=O)N[C@@H]1C(=O)N2C(C(=O)[O-])=C(C[n+]3cccc4c3CCC4)CS[C@H]12)c1csc(N)n1 [CEFPIROME],,,,> 30 µM,
NS(=O)(=O)c1cc(C2(O)NC(=O)c3ccccc32)ccc1Cl (stereo not drawn) [CHLORTHALIDONE],> 10 µM,> 10 µM,,,
CC[C@H]1OC(=O)[C@H](C)[C@@H](O[C@H]2C[C@@](C)(OC)[C@@H](O)[C@H](C)O2)[C@H](C)[C@@H](O[C@@H]2O[C@H](C)C[C@H](N(C)C)[C@H]2O)[C@](C)(OC)C[C@@H](C)C(=O)[C@H](C)[C@@H](O)[C@]1(C)O [CLARITHROMYCIN],,,> 30 µM,> 30 µM,
Oc1c(I)cc(Cl)c2cccnc12 [CLIOQUINOL],,,,> 30 µM,AC50 [1]: > 30 µM; AC50 [2]: > 30 µM
C[C@@H]1CCC[C@H](C)N1NC(=O)c1ccc(Cl)c(S(N)(=O)=O)c1 [CLOPAMIDE],,,> 30 µM,> 30 µM,
COc1ccc2c(c1)[C@]13CCCC[C@@H]1[C@H](C2)N(C)CC3 [DEXTROMETHORPHAN],> 10 µM,> 30 µM,> 10 µM,,AC50 [4]: > 30 µM; AC50 [5]: > 10 µM; AC50 [6]: > 30 µM; AC50 [8]: > 30 µM; AC50 [9]: 11.2 µM
O=c1oc2ccccc2c(O)c1Cc1c(O)c2ccccc2oc1=O [DICUMAROL],> 10 µM,> 10 µM,,,
CCn1cc(C(=O)O)c(=O)c2cc(F)c(N3CCNCC3)nc21 [ENOXACIN],> 10 µM,> 30 µM,> 10 µM,,AC50 [4]: > 30 µM; AC50 [5]: > 10 µM; AC50 [6]: > 30 µM; AC50 [8]: > 30 µM; AC50 [9]: > 10 µM

Structure (SMILES),AC50 [3],AC50 [7],AC50 [10],AC50 [11],other results
O=C(O)CSCC(=O)NC1CCSC1=O (stereo not drawn) [ERDOSTEINE],,,> 30 µM,> 30 µM,
COc1cccc(N(C)C(=S)Oc2ccc3c(c2)CCCC3)n1 [LIRANAFTATE],,,> 30 µM,> 30 µM,
C#C[C@]1(O)CC[C@H]2[C@@H]3CCc4cc(OC)ccc4[C@H]3CC[C@@]21C [MESTRANOL],> 10 µM,> 10 µM,,,
CCC(=O)O[C@@H]1CC(=O)O[C@H](C)C/C=C/C=C/[C@H](OC(C)=O)[C@H](C)C[C@H](CC=O)[C@H](O[C@@H]2O[C@H](C)[C@@H](O[C@H]3C[C@@](C)(OC(C)=O)[C@@H](OC(=O)CC)[C@H](C)O3)[C@H](N(C)C)[C@H]2O)[C@H]1OC [MIOCAMYCIN],,,,,AC50 [1]: > 30 µM; AC50 [2]: > 30 µM
N=C(N)c1ccc2cc(OC(=O)c3ccc(N=C(N)N)cc3)ccc2c1 [NAFAMOSTAT],,,7.9 µM,> 30 µM,
CNC(=O)Oc1ccc2c(c1)[C@]1(C)CCN(C)[C@@H]1N2C [PHYSOSTIGMINE],,,16 µM,> 30 µM,
C1CNCCN1 [PIPERAZINE],,,,,AC50 [1]: > 30 µM; AC50 [2]: > 30 µM
O=C(O)c1cc(O)c2c3nc4ccccc4oc-3cc(=O)c2n1 [PIRENOXINE],,,> 30 µM,> 30 µM,
NS(=O)(=O)c1cc(C(=O)O)cc(N2CCCC2)c1Oc1ccccc1 [PIRETANIDE],,,> 30 µM,> 30 µM,
CNCCCC1c2ccccc2C=Cc2ccccc21 [PROTRIPTYLINE],> 10 µM,> 10 µM,,,
COCCCOc1ccnc(C[S+]([O-])c2nc3ccccc3[nH]2)c1C (stereo not drawn) [RABEPRAZOLE],> 10 µM,> 30 µM,> 10 µM,,AC50 [4]: > 30 µM; AC50 [5]: > 10 µM; AC50 [6]: > 30 µM; AC50 [8]: > 30 µM; AC50 [9]: > 10 µM
CC(C)=CCOc1ccc(/C=C/C(=O)c2ccc(OCC=C(C)C)cc2OCC(=O)O)cc1 [SOFALCONE],,,> 30 µM,> 30 µM,
O=C(CCCN1CCC2(CC1)C(=O)NCN2c1ccccc1)c1ccc(F)cc1 [SPIPERONE],,,9.2 µM,> 30 µM,
CN(C)c1cc(NC(=O)CNC(C)(C)C)c(O)c2c1C[C@H]1C[C@H]3[C@H](N(C)C)C(O)=C(C(N)=O)C(=O)[C@@]3(O)C(O)=C1C2=O [TIGECYCLINE],> 30 µM,> 30 µM,> 30 µM,,
OCCN1CCN(CC/C=C2/c3ccccc3Sc3ccc(Cl)cc32)CC1 [ZUCLOPENTHIXOL],> 10 µM,> 10 µM,,,AC50 [9]: 7.34 µM
